Results as given in patent US9102620B2, “Deuterated N-ethyl-N-phenyl-1,2-dihydro-4-hydroxy-5-chloro-1-methyl-2-oxoquinoline-3-carboxamide, salts and uses thereof” (TEVA PHARMACEUTICAL INDUSTRIES, LTD., priority 2010, dated 2015).
Like-named read-outs stand apart in the source and are kept apart here.

Key:
CYP3A4/5 = conditions: human, 3 days; for Enzyme activity, Midazolam 1′-hydroxylation (CYP3A4/5) / Percent positive control, Midazolam 1′-hydroxylation (CYP3A4/5) activity: hepatocytes
Protocol: (§1) After treatment, the cells were incubated in situ with marker substrates for the analysis of phenacetin O-dealkylation (marker for CYP1A2) and midazolam 1′-hydroxylation (marker for CYP3A4/5) by LC/MS/MS.
Incubations of hepatocytes with probe substrates were conducted in accordance with SOP L5041.02. Approximately 24 hours after the last treatment, spent media was aspirated from the wells, and each well was rinsed two times with pre-warmed (37±2° C.) fresh culture media. Media was aspirated from the wells and reactions were started by addition of 200 μL pre-warmed media containing the probe substrate to each well. […] At 30 minutes, an aliquot (150 μL) of the incubation mixture was removed and added to a well of a 96-well plate containing 300 μL of stop reagent (acetonitrile) and internal standard (Table 2). The mixtures were mixed thoroughly and allowed to sit for at least 15 minutes at 2-8° C. Samples were centrifuged at 2000×g for 10 minutes at 2-8° C., and supernatant fractions were analyzed by LC/MS/MS.
All analyses were performed with validated LC/MS/MS methods. The procedures used for the analysis of each metabolite followed the applicable LC/MS/MS analytical method SOPs and are summarized in Table 2. The MS equipment was either an ABI Sciex (Applied Biosystems/MDS SCIEX) API 4000 or API 3000 instrument with Shimadzu HPLC pumps and autosampler systems.
Individual rates of reaction from like treatment groups were averaged, and for those groups with n≧3, standard deviations were determined. Fold increases were determined by dividing the enzymatic rate for each treatment group by that of the vehicle control. Percent positive control was calculated with the following equation: […]

CYP1A2 mRNA = conditions: human, 3 days; for mRNA Percent positive control, CYP1A2: hepatocytes
Protocol: as §1
Approximately 24 hours after the last treatment, hepatocytes were lysed in TRIzol reagent after the in situ marker substrate incubations, and cell lysates were stored at −75±5° C. For human hepatocyte preparation H971, media from six wells per treatment group was aspirated, and approximately 132 μL TRIzol were added to each well. The cell lysates were mixed by repeated pipetting. Total RNA was isolated from the cell lysates using the TRIzol protocol (Invitrogen) and was purified using the RNeasy Mini Kit (Qiagen Inc.) according to SOP L6161.02. RNA quality and concentration were determined by measuring absorbance at 260 and 280 nm on a BioTek Synergy HT plate reader (BioTek Instruments, Inc.) with KC4 Signature software (version 3.4 Rev 21, BioTek Instruments, Inc.) according to SOP L6162.02. The analysis of RNA integrity was carried out with the RNA 6000 Nano Assay Kit on an Agilent 2100 Bioanalyzer (Agilent Technologies, Inc.) according to SOP L6162.02. Single-stranded cDNA was prepared from RNA with the RT Master Mix using the AB 7300 Real Time PCR system thermocycling program or AB 7900HT Fast Real Time PCR System thermocycling program (Applied Biosystems) according to SOP L6160.04. […] The RT Master Mix was added to each RNA sample to complete the components of the reaction. No template controls (NTCs) were included in the analysis. For the NTC reactions, RNase-free water was added in place of the RNA sample. The cDNA prepared samples were stored at −20±5° C. prior to analysis by qRT-PCR.
Quantitative RT-PCR was carried out according to SOP L6160.04 (XenoTech, LLC) and the Applied Biosystems protocol. Each PCR was performed in triplicate. A Primer Mix was prepared for each Gene Expression assay. A typical Primer Mix contained TaqMan Universal Master Mix (1×), Gene Expression Assay (1×, 900 nM forward and reverse primers) and RNase-free water. The Reaction Mix was prepared by adding the Primer Mix to cDNA. A percentage of samples (no less than 10%) included NACs. […] The relative quantity of the target cDNA compared with that of the control cDNA (GAPDH) was determined by the ΔΔCt method (Applied Biosystems User Bulletin #2). Relative quantification measures the change in mRNA expression in a test sample relative to that in a control sample (e.g., DMSO). This method assumes that the efficiency of the target amplification and the efficiency of the endogenous control amplification are approximately equal.
For qRT-PCR, data were processed using the Sequence Detection System (SDS) Software version 1.4, for Relative Quantification (Applied Biosystems). This software analyzes relative gene expression using the comparative Ct method (ΔΔCt), which relates the PCR signal of the target transcript to the PCR signal of the target in an untreated control. Both the treated sample and the untreated control signals are normalized to the endogenous control (GAPDH), for which expression is not affected by treatment and expression is constant throughout the tissue being tested. […] Calculations are as follows: ΔCt=Ct(target)−Ct(endogenous control) 1. ΔΔCt=ΔCt(treated sample)−ΔCt(untreated control) 2. Fold change in expression=2−ΔΔCt 3.
The level of mRNA expression relative to the positive control was calculated as follows: […]

[1] = tested on: cultured human hepatocytes; type: in vitro ADME
Protocol: Just prior to treatment, on each day of treatment, and just prior to incubation of the marker substrates, spent culture medium (spent dosing media) were collected from the vehicle, laquinimod and Compound 2 treatment groups. Approximately 150 μL was collected from each of three wells, from each aforementioned treatment groups, and pooled for each sample to a final volume of approximately 450 μL. These spent media samples were analyzed for residual laquinimod, Compound 2 and the de-ethylated metabolite (DELAQ).
The concentrations of Compound 2, laquinimod and DELAQ were measured in spent media aliquots from media collected just prior to treatment, on each day of treatment, and just prior to incubation of the marker substrates. The concentration of formed DELAQ was approximately 2-fold higher in the laquinimod media compared to the Compound 2 media. At the 10 μM treatment concentrations of either Compound 2 or laquinimod, the ratio of Compound 2:DELAQ was on average, 40.9 while the ratio of laquinimod:DELAQ was on average, 15.7. This represents an approximately 3-fold increase in the formation of DELAQ from laquinimod compared to Compound 2 and is explained by the presence of deuterium on the ethyl moiety which results in slower N-deethylation.

| Structure (SMILES) | Fold Increase, Midazolam 1′-hydroxylation (CYP3A4/5) activity (CYP3A4/5; 0.01 μM) [fold] | Fold Increase, Midazolam 1′-hydroxylation (CYP3A4/5) activity (CYP3A4/5; 0.05 μM) [fold] | Fold Increase, Midazolam 1′-hydroxylation (CYP3A4/5) activity (CYP3A4/5; 0.1 μM) [fold] | Fold Increase, Midazolam 1′-hydroxylation (CYP3A4/5) activity (CYP3A4/5; 1 μM) [fold] | Fold Increase, Midazolam 1′-hydroxylation (CYP3A4/5) activity (CYP3A4/5; 10 μM) [fold] | Enzyme activity, Midazolam 1′-hydroxylation (CYP3A4/5) (CYP3A4/5; 0.01 μM) [pmol/mg protein/min] | Percent positive control, Midazolam 1′-hydroxylation (CYP3A4/5) activity (CYP3A4/5; 0.01 μM) [%] | Enzyme activity, Midazolam 1′-hydroxylation (CYP3A4/5) (CYP3A4/5; 0.05 μM) [pmol/mg protein/min] | Percent positive control, Midazolam 1′-hydroxylation (CYP3A4/5) activity (CYP3A4/5; 0.05 μM) [%] | Enzyme activity, Midazolam 1′-hydroxylation (CYP3A4/5) (CYP3A4/5; 0.1 μM) [pmol/mg protein/min] | Percent positive control, Midazolam 1′-hydroxylation (CYP3A4/5) activity (CYP3A4/5; 0.1 μM) [%] | Enzyme activity, Midazolam 1′-hydroxylation (CYP3A4/5) (CYP3A4/5; 1 μM) [pmol/mg protein/min] | Percent positive control, Midazolam 1′-hydroxylation (CYP3A4/5) activity (CYP3A4/5; 1 μM) [%] | Enzyme activity, Midazolam 1′-hydroxylation (CYP3A4/5) (CYP3A4/5; 10 μM) [pmol/mg protein/min] | Percent positive control, Midazolam 1′-hydroxylation (CYP3A4/5) activity (CYP3A4/5; 10 μM) [%] | mRNA Fold increase, CYP1A2 (CYP1A2 mRNA; 0.01 μM) [fold] | mRNA Fold increase, CYP1A2 (CYP1A2 mRNA; 0.05 μM) [fold] | mRNA Fold increase, CYP1A2 (CYP1A2 mRNA; 0.1 μM) [fold] | mRNA Fold increase, CYP1A2 (CYP1A2 mRNA; 1 μM) [fold] | mRNA Fold increase, CYP1A2 (CYP1A2 mRNA; 10 μM) [fold] | further results |
| --- | --- | --- | --- | --- | --- | --- | --- | --- | --- | --- | --- | --- | --- | --- | --- | --- | --- | --- | --- | --- | --- |
| [2H]C([2H])([2H])C([2H])([2H])N(C(=O)c1c(O)c2c(Cl)cccc2n(C)c1=O)c1ccccc1 [Compound 2, N-D5-ethyl-N-phenyl-1,2-dihydro-4-hydroxy-5-chloro-1-methyl-2-oxoquinoline-3-carboxamide] | 0.91 | 0.77 | 0.72 | 0.56 | 0.51 | 0.179 ± 0.006 | −2.24 | 0.151 ± 0.009 | −5.94 | 0.140 ± 0.010 | −7.46 | 0.109 ± 0.010 | −11.5 | 0.101 ± 0.003 | −12.7 | 2.84 | 4.98 | 7.20 | 13.1 | 24.3 | mRNA Percent positive control, CYP1A2 (CYP1A2 mRNA; 0.01 μM): 24.2%; mRNA Percent positive control, CYP1A2 (CYP1A2 mRNA; 0.05 μM): 52.5%; mRNA Percent positive control, CYP1A2 (CYP1A2 mRNA; 0.1 μM): 81.7%; mRNA Percent positive control, CYP1A2 (CYP1A2 mRNA; 1 μM): 159%; mRNA Percent positive control, CYP1A2 (CYP1A2 mRNA; 10 μM): 307%; difference in the Compound 2:DELAQ to laquinimod:DELAQ ratio ([1]; 10 μM): ~3 fold; ratio of test article:DELAQ in spent media, on average ([1]; 10 μM): 40.9 |
| CCN(C(=O)c1c(O)c2c(Cl)cccc2n(C)c1=O)c1ccccc1 [Laquinimod, N-ethyl-N-phenyl-1,2-dihydro-4-hydroxy-5-chloro-1-methyl-2-oxoquinoline-3-carboxamide] | 0.92 | 0.82 | 0.78 | 0.54 | 0.49 | 0.180 ± 0.023 | −2.04 | 0.161 ± 0.013 | −4.63 | 0.151 ± 0.002 | −5.89 | 0.106 ± 0.004 | −12.0 | 0.0957 ± 0.0067 | −13.4 | 4.22 | 7.90 | 9.50 | 16.8 | 20.5 | mRNA Percent positive control, CYP1A2 (CYP1A2 mRNA; 0.01 μM): 42.5%; mRNA Percent positive control, CYP1A2 (CYP1A2 mRNA; 0.05 μM): 91.1%; mRNA Percent positive control, CYP1A2 (CYP1A2 mRNA; 0.1 μM): 112%; mRNA Percent positive control, CYP1A2 (CYP1A2 mRNA; 1 μM): 209%; mRNA Percent positive control, CYP1A2 (CYP1A2 mRNA; 10 μM): 257%; concentration of formed DELAQ in laquinimod media compared to Compound 2 media [1]: approximately 2 fold; increase in the formation of DELAQ from laquinimod compared to Compound 2 ([1]; 10 μM): approximately 3 fold; ratio of test article:DELAQ in spent media, on average ([1]; 10 μM): 15.7 |
